Experimental data taken from article PMC5304334, “Antifouling potential of Nature-inspired sulfated compounds” (Scientific Reports, 2017).
Entries after “also recorded” stand apart in the source; their conditions may differ. Read-outs that look alike come from different tables or passages of the source.

Key:
[1] = system: Mytilus galloprovincialis plantigrades; assay: Anti-settlement bioassay with mussel plantigrades (effectiveness and mortality); type: in vivo; details: for Anti-settlement activity in screening (result in words): 250 and 50 μM, p < 0.05 Dunnett; for EC50: Mytilus galloprovincialis, read-out: EC50, minimum concentration that inhibited 50% of larval settlement
Description: (§1) M. galloprovincialis juvenile (0.5 cm shell length approximately) aggregates were collected from mussel beds from the intertidal rocky shore, during low neap tides at Memória beach, Matosinhos, Portugal (41°13′59″N; 8°43′28″W), and immediately transported to the laboratory. M. galloprovincialis plantigrade post-larvae (0.5–2 mm) were screened among the small mussel aggregates in a binocular magnifier (Olympus SZX2-ILLT), gently washed with filtered seawater to remove organic debris and sand particles and isolated in a petri dish with filtered seawater immediately before the bioassays.
(§2) For the screening bioassay, competent M. galloprovincialis plantigrades (showing exploring behavior, ie, moving their foot searching for the appropriate substrate to settle) were selected and exposed to the series of sulfated compounds 1–13 at two concentrations (250 and 50 μM) in 24-well microplates for 15 h, at 18 ± 1 °C, in the darkness. Bioassays time frame was selected based on preliminary bioassays to ensure that the response measured is reflecting the compounds effect. Test solutions were prepared in filtered seawater (previously treated by UV light, and carbon filters and mechanically filtered with […] filter before use) and obtained by dilution of the compounds stock solutions (50 mM) in ultra-pure water. Four well replicates were used per condition with five plantigrades per well and 2.5 mL of test solution. A negative control, with ultra-pure water was included in all bioassays, as well as a positive control with 5 μM CuSO4 (a potent AF agent). At the end of the exposure period, the anti-settlement activity was determined by the presence/absence of byssal threads produced by each individual efficiently attached for all the conditions tested.
(§3) Data from the anti-settlement and antibacterial screenings were analyzed using a one-way analysis of variance (ANOVA) followed by a Dunnett test against the control (p < 0.05). Semi-maximum response concentration that inhibited 50% larval settlement (EC50), semi-maximum response concentration that inhibited 20% bacterial growth (EC20) and the median lethal dose (LC50) for each bioactive compound were assessed using Probit regression analysis. Pearson Goodness-of-fit (Chi-Square) significance was considered at p < 0.05 for all analyses, and 95% lower and upper confidence limits [95% LCL; UCL] were presented. Therapeutic ratio (LC50/EC50) was used to evaluate the effectiveness vs toxicity of compounds[31][53][54]. The software IBM SPSS Statistics 21 was used for statistical analysis.

Vibrio harveyi CECT 525 = assay: Antibacterial growth inhibition, Vibrio harveyi; type: cell-based; details: V. harveyi
Description: (§4) Antibacterial activities were evaluated against four strains of marine biofilm-forming bacteria Cobetia marina CECT 4278, Vibrio harveyi CECT 525, Halomonas aquamarina CECT 5000, and Pseudoalteromonas atlantica CECT 570, all from Spanish Type Culture Collection (CECT). The bacteria were inoculated and incubated for 24 h at 26 °C in marine broth (Difco) at an initial density of 0.1 (OD600) in 96 well flat-bottom microtiter plates. Sulfated compounds stock solutions were prepared in ultra-pure water. […] Bacterial growth inhibition in the presence of the test compounds was measured in quadriplicate by reading of optical density at 600 nm using a microplate reader (Biotek Synergy HT, Vermont, USA). Marine broth with ultra-pure water and penicilin-streptomycin-neomycin stabilized solution were used as negative (B) and positive (C) controls, respectively.
(§5) For the determination of maximal inhibitory concentrations (IC) a serial dilution of the stock solution was used to obtain final concentrations from 100 μM to 0.75 μM, the same range applied in antifouling bioassays plus one lower concentration, and the same procedure was applied.
Data from the anti-settlement and antibacterial screenings were analyzed using a one-way analysis of variance (ANOVA) followed by a Dunnett test against the control (p < 0.05). […]

[2] = system: Halomonas aquamarina CECT 5000; assay: Antibacterial growth inhibition, Halomonas aquamarina; type: cell-based; details: H. aquamarina
Description: as §4, §5, §3

[3] = Anti-settlement bioassay with mussel plantigrades (effectiveness and mortality); type: in vivo, Mytilus galloprovincialis; details: Mytilus galloprovincialis, in vivo, other: immersion in test solution in filtered seawater; mortality of plantigrades, 15 h, up to 500 μM; read-out: LC50, the median lethal dose
Description: as §1, §2, §3

[4] = Seawater stability under AF assay conditions (HPLC-DAD); type: physicochemical; details: 250 μM in filtered seawater, 15 h, 18 °C
Description: High performance liquid chromatography with Diode-Array Detection (HPLC-DAD) analyses were carried out on a System SMI Pump Series II (Gloucester, UK) equipped with a Rheodyne 7125 injector fitted with a 20 μL loop, a TSP-UV6000LP detector, and a Chromquest for Windows NT integrator and using a C-18 Nucleosil column (5 μm, 250 × 4.6 mm I.D.), from Macherey-Nagel (Düren, Germany); acetonitrile was of HPLC grade from Merck. HPLC ultrapure water was generated by a Milli-Q system (Millipore, Bedford, MA, USA). The mobile phase used was water with tetrabutylammonium bromide (TBAB, 25 mM) and acetonitrile (38:62) at a constant flow rate of 1.0 mL.min^−1. The mobile phase was filtered ([…]) and degassed for 15 min in an ultrasonic bath before use.
The seawater stability of the three most promising compounds 2, 6, and 12 in the time period (15 h) and temperature (18 °C) of the AF assay was evaluated by HPLC-DAD. Compounds were analyzed at 250 μM (final concentration) in filtered seawater ([…]). Incubations were performed in glass HPLC vials and three independent samples plus respective blank (filtered seawater) and controls (time zero - freshly prepared solutions of compounds) were analyzed.

[5] = target: T1, Electrophorus electric acetylcholinesterase Type V-S (Electrophorus electricus, UniProt O42275); assay: In vitro acetylcholinesterase activity (Ellman); type: biochemical; details: 50 μM compound
T1 construct: purchased SIGMA C2888
T1 sequence (O42275 24-633): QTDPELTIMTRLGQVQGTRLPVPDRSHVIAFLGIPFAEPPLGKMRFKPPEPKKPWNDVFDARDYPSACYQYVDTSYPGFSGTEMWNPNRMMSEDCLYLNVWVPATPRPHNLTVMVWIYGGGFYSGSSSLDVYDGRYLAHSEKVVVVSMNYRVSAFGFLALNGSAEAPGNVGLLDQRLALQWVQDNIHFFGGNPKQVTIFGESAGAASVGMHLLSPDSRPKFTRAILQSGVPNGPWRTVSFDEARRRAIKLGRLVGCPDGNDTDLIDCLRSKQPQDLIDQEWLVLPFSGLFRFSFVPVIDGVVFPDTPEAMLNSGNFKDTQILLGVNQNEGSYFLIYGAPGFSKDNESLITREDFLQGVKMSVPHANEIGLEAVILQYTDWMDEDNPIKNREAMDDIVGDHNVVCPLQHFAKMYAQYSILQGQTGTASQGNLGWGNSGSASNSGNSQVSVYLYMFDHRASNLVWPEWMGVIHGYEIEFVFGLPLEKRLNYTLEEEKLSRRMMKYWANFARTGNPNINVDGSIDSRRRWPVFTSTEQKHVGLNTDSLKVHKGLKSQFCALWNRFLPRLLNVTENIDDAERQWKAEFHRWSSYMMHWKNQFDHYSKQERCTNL
Description: The potential of compounds 2, 6 and 12 to inhibit acetylcholinesterases activity was evaluated using Electrophorus electric acetylcholinesterase Type V-S (SIGMA C2888, E.C. 3.1.1.7), according to Ellman et al.[47] with some modifications. Briefly, reaction solution containing phosphate buffer 1 M pH 7.2, dithiobisnitrobenzoate (DTNB) 10 mM (acid dithiobisnitrobenzoate and sodium hydrogen carbonate in phosphate buffer) and […] 0.075 M was added to pure acetylcholinesterase enzyme (0.25 U/mL) and each test sulfated compound (final concentration of 50 μM) in quadruplicate. The optical density was measured at 412 nm in a microplate reader during 5 min at 25 °C. A negative control (B) with ultra-pure water and a positive control (C+) with 20 mM eserine also included.

[6] = system: Agaricus bisporus tyrosinase; assay: In vitro tyrosinase inhibition assay; type: biochemical; details: 50 μM compound
Description: Tyrosinase inhibition assays were conducted using Agaricus bisporus tyrosinase (EC 1.14.18.1) according to Adhikari et al.[50] with slight modifications. The enzymatic reaction follows the catalytic conversion of L-Dopa to dopaquinone and the formation of dopachrome by measuring the absorvance at 475 nm. Briefly, tyrosinase (25 U/mL) is added to 50 mM fosfate buffer pH 6.5 and the sulfated compound at 50 μM. The enzymatic activity was triggered by the addition of L-dopa (25 mM). Kojic acid was included as positive control and ultra-pure water as negative control.

Artemia salina nauplii = Artemia salina nauplii lethality (ecotoxicity) test; type: in vivo
Description: Selected sulfated compounds with AF potential 2, 6, and 12 were tested for general toxicity to nontarget species using the brine shrimp (Artemia salina) nauplii lethality test[51]. Briefly, A. salina eggs were allowed to hatch in nutrient–enriched seawater as nauplii for approximately 48 h at 25 °C. Toxicity tests were performed in the darkness in 96-wells microplates with eight replicates per condition and 15–20 nauplii per well. Serial diluted test solutions of the most promising sulfated AF compounds (25, 50, and 250 μM) were prepared in filtered seawater. K2Cr2O7 (13.6 μM) was included as positive control and ultra-pure water as negative control. Percentage of mortality was determined at 48 h of exposure.

[7] = Luminescent Vibrio fischeri ecotoxicity assay (ISO11348); type: cell-based; details: Vibrio fischeri; read-out: LC50 Vibrio fischeri
Description: (§6) After 5, 15 and 30 min of exposure, the light emitted as a by-product of Vibrio fischeri cellular respiration was measured at 490 nm. Any inhibition of cellular activity results in a decreased rate of respiration and a corresponding decrease in the rate of luminescence. The decrease of bacterial luminescence measured after 5, 15 or 30 min of exposition was used as test endpoint. Luminescence was measured using a LUMIStox photometer from DR LANGE, after a contact time of 15 min and 30 min at 15 ± 1 °C, taking into account a correction factor, fk, which is a measure of intensity change of control samples during the exposure time.
(§7) The pH of all samples was within the interval 6.0–8.5.

[8] = system: Vibrio fischeri (NRRL-B-11177); assay: as above; type: cell-based; details: for EC50: Aliivibrio fischeri, V. fischeri luminescence
Description: as §6, §7

[9] = Water solubility (statement in discussion); type: physicochemical

In the case of `O=c1c(O[C@@H]2O[C@H](COS(=O)(=O)O)[C@@H](OS(=O)(=O)O)[C@H](OS(=O)(=O)O)[C@H]2OS(=O)(=O)O)c(-c2ccccc2)oc2cc(O[C@@H]3O[C@H](COS(=O)(=O)O)[C@@H](OS(=O)(=O)O)[C@H](OS(=O)(=O)O)[C@H]3OS(=O)(=O)O)ccc12` [Compound 4, 3,7-di(β-D-glucopyranosyl)flavone persulfate], the “Anti-settlement activity in screening (result in words)” value ([1]; 15 h, versus negative control) is reported as “did not show notable activity”, the “EC20, minimum concentration that inhibited 20% of bacterial growth” value (Vibrio harveyi CECT 525) is reported as >100 µM and the “Bacterial growth inhibition in screening” value ([2]; 12.5 μM, 24 h, 26 °C) is reported as “significant inhibitory activity”. For the same compound, the “Bacterial growth inhibition at all the concentrations tested” value ([2]; 0.75–100 μM) was “less than 30%”, the inhibition at 12.5 µM ([2]; Vreelandella aquamarina, CECT5000, 12.5 μM) was 15.3% and the inhibition at 100 µM ([2]; Vreelandella aquamarina, CECT5000, 100 μM) was 26.5%.

For `O=C(O)c1cc(OS(=O)(=O)O)c(OS(=O)(=O)O)c(OS(=O)(=O)O)c1` [Compound 12, gallic acid persulfate], the LC50 at 15 h [3] was > 500 µM, the “Anti-settlement activity in screening (result in words)” value ([1]; 15 h, versus negative control) was “significant anti-settlement responses at 50 μM” and the EC50 ([1]; 15 h, plantigrades, 15 h, 18 °C, 1.56–500 μM) was 17.7 µM. For the same compound, the EC50 ([1]; 15 h, plantigrades, 15 h, 18 °C) was 8.95 µg/mL, the “Concentration range with significant anti-settlement activity” value ([1]; concentration-response 1.56–500 μM, versus negative control) was 12.5 to 500 µM and the “EC50, minimum concentration that inhibited 50% of larval settlement” value ([1]; plantigrades, 15 h, 18 °C) was 8.4 µg/mL. The “Concentration detected relative to the initial one (seawater stability)” value [4] was “at least 95%”, the “Acetylcholinesterase activity inhibition” value [5] was “not inhibited” and the “Tyrosinase activity inhibition” value [6] was “not inhibited”. For the same compound, the “Mortality of Artemia salina” value (Artemia salina nauplii; 250 μM) was < 10%, the “Mortality of A. salina nauplii” value (Artemia salina nauplii; 25, 50, and 250 μM, 48 h) was “less than 10%” and the “Toxicity to A. salina” value (Artemia salina nauplii; 25, 50, and 250 μM, 48 h, versus negative control) was “no toxicity”. For the same compound, the CC50 [7] was > 1000 µg/mL, the “Inhibition of light radiation emitted by V. fischeri” value ([8]; 15 min or 30 min contact, up to 1000 mg/L) was “no inhibition of light radiation emitted was found; also recorded: lack of light radiation inhibition” and the EC50 ([8]; NRRLB11177, 0.25 h, 15 min contact, read-out: EC50 15min) was > 1000 µg/mL. The EC50 ([8]; NRRLB11177, 0.5 h, 30 min contact, read-out: EC50 30min) was > 1000 µg/mL and the “Water solubility” value [9] was “highly water soluble”.
